How the values were obtained:
Format in all cases: in vivo
[1] = tested on: Italian ryegrass (Lolium multiflorum); experiment: Test A preemergence, visual plant response rating; conditions: for Ryegrass, Italian plant response rating: 125 g ai/ha, preemergence, 0 to 100 scale, 0 no effect, 100 complete control; for Ryegrass, Italian plant response rating (0 to 100 scale): approx. 10 days
Outline: (§1)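 Ratings 0–100 (100 = complete control), visual, vs untreated controls at ~10 days. Application pre- or postemergence; solvent mixture with surfactant; loam/sand medium.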

[2] = tested on: barnyardgrass (Echinochloa crus-galli); experiment: Test A preemergence, visual plant response rating; conditions: for Barnyardgrass plant response rating: 125 g ai/ha, preemergence, 0 to 100 scale, 0 no effect, 100 complete control; for Barnyardgrass plant response rating (0 to 100 scale): approx. 10 days
Outline: as §1

[3] = tested on: foxtail, giant (giant foxtail, Setaria faberii); experiment: Test A preemergence, visual plant response rating; conditions: for Foxtail, Giant plant response rating: 125 g ai/ha, preemergence, 0 to 100 scale, 0 no effect, 100 complete control; for Foxtail, Giant plant response rating (0 to 100 scale): approx. 10 days
Outline: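 Preemergence: seeds in loam/sand blend given directed soil spray of compound in non-phytotoxic solvent with surfactant. Postemergence: plants 2–10 cm, one- to two-leaf stage, sprayed with same formulation. Visual injury rated vs untreated controls after ~10 days in greenhouse, 0 (no effect) to 100 (complete control).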

[4] = tested on: kochia (Kochia scoparia); experiment: Test A preemergence, visual plant response rating; conditions: for Kochia plant response rating: 125 g ai/ha, preemergence, 0 to 100 scale, 0 no effect, 100 complete control; for Kochia plant response rating (0 to 100 scale): approx. 10 days
Outline: as §1

[5] = tested on: pigweed (Amaranthus retroflexus); experiment: Test A preemergence, visual plant response rating; conditions: for Pigweed plant response rating: 125 g ai/ha, preemergence, 0 to 100 scale, 0 no effect, 100 complete control; for Pigweed plant response rating (0 to 100 scale): approx. 10 days
Outline: as §1

[6] = tested on: ragweed (common ragweed, Ambrosia elatior); experiment: Test A preemergence, visual plant response rating; conditions: for Ragweed plant response rating: 125 g ai/ha, preemergence, 0 to 100 scale, 0 no effect, 100 complete control; for Ragweed plant response rating (0 to 100 scale): approx. 10 days
Outline: as §1

[7] = tested on: Italian ryegrass (Lolium multiflorum); experiment: Test A postemergence, visual plant response rating; conditions: for Ryegrass, Italian plant response rating (0 to 100 scale): 500 g ai/ha, postemergence, 0 is no effect, 100 is complete control; for Ryegrass, Italian plant response rating: Postemergence, 125 g ai/ha, 0 to 100 scale (0 no effect, 100 complete control)
Outline: as §1

[8] = tested on: barnyardgrass (Echinochloa crus-galli); experiment: Test A postemergence, visual plant response rating; conditions: for Barnyardgrass plant response rating (0 to 100 scale): 500 g ai/ha, postemergence, 0 is no effect, 100 is complete control; for Barnyardgrass plant response rating: Postemergence, 125 g ai/ha, 0 to 100 scale (0 no effect, 100 complete control)
Outline: as §1

[9] = tested on: blackgrass (Alopecurus myosuroides); experiment: Test A postemergence, visual plant response rating; conditions: for Blackgrass plant response rating (0 to 100 scale): 500 g ai/ha, postemergence, 0 is no effect, 100 is complete control; for Blackgrass plant response rating: Postemergence, 125 g ai/ha, 0 to 100 scale (0 no effect, 100 complete control)
Outline: as §1

[10] = tested on: corn (Zea mays); experiment: Test A postemergence, visual plant response rating; conditions: for Corn plant response rating (0 to 100 scale): 500 g ai/ha, postemergence, 0 is no effect, 100 is complete control; for Corn plant response rating: Postemergence, 125 g ai/ha, 0 to 100 scale (0 no effect, 100 complete control)
Outline: as §1

[11] = tested on: foxtail, giant (giant foxtail, Setaria faberii); experiment: Test A postemergence, visual plant response rating; conditions: for Foxtail, Giant plant response rating (0 to 100 scale): 500 g ai/ha, postemergence, 0 is no effect, 100 is complete control; for Foxtail, Giant plant response rating: Postemergence, 125 g ai/ha, 0 to 100 scale (0 no effect, 100 complete control)
Outline: as §1

[12] = tested on: galium (catchweed bedstraw, Galium aparine); experiment: Test A postemergence, visual plant response rating; conditions: for Galium plant response rating (0 to 100 scale): 500 g ai/ha, postemergence, 0 is no effect, 100 is complete control; for Galium plant response rating: Postemergence, 125 g ai/ha, 0 to 100 scale (0 no effect, 100 complete control)
Outline: as §1

[13] = tested on: kochia (Kochia scoparia); experiment: Test A postemergence, visual plant response rating; conditions: for Kochia plant response rating (0 to 100 scale): 500 g ai/ha, postemergence, 0 is no effect, 100 is complete control; for Kochia plant response rating: Postemergence, 125 g ai/ha, 0 to 100 scale (0 no effect, 100 complete control)
Outline: as §1

[14] = tested on: pigweed (Amaranthus retroflexus); experiment: Test A postemergence, visual plant response rating; conditions: for Pigweed plant response rating (0 to 100 scale): 500 g ai/ha, postemergence, 0 is no effect, 100 is complete control; for Pigweed plant response rating: Postemergence, 125 g ai/ha, 0 to 100 scale (0 no effect, 100 complete control)
Outline: as §1

[15] = tested on: ragweed (common ragweed, Ambrosia elatior); experiment: Test A postemergence, visual plant response rating; conditions: for Ragweed plant response rating (0 to 100 scale): 500 g ai/ha, postemergence, 0 is no effect, 100 is complete control; for Ragweed plant response rating: Postemergence, 125 g ai/ha, 0 to 100 scale (0 no effect, 100 complete control)
Outline: as §1

[16] = tested on: wheat (Triticum aestivum); experiment: Test A postemergence, visual plant response rating; conditions: for Wheat plant response rating (0 to 100 scale): 500 g ai/ha, postemergence, 0 is no effect, 100 is complete control; for Wheat plant response rating: Postemergence, 125 g ai/ha, 0 to 100 scale (0 no effect, 100 complete control)
Outline: as §1

[17] = tested on: barnyardgrass (Echinochloa crus-galli); experiment: Test B flooded paddy test, visual plant response rating; conditions: 250 g ai/ha, Flood, applied to paddy water, 2-leaf stage, evaluated after 13 to 15 days
Outline: (§2)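 Visual scores compare treated plants with controls after 13 to 15 days of greenhouse growth. Treatment was made into paddy water standing 3 cm above the soil, with plants at the 2-leaf stage and flooding maintained throughout.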

[18] = tested on: ducksalad (Heteranhera limosa); experiment: as above; conditions: 250 g ai/ha, Flood, applied to paddy water, 2-leaf stage, evaluated after 13 to 15 days
Outline: as §2

[19] = tested on: rice (Oryza sativa); experiment: as above; conditions: 250 g ai/ha, Flood, applied to paddy water, 2-leaf stage, evaluated after 13 to 15 days
Outline: as §2

[20] = tested on: sedge, umbrella (small-flower umbrella sedge, Cyperus difformis); experiment: as above; conditions: 250 g ai/ha, Flood, applied to paddy water, 2-leaf stage, evaluated after 13 to 15 days
Outline: as §2

SMILES | Ryegrass, Italian plant response rating (0 to 100 scale) ([1]; 500 g ai/ha Preemergence) | Barnyardgrass plant response rating (0 to 100 scale) ([2]; 500 g ai/ha Preemergence) | Foxtail, Giant plant response rating (0 to 100 scale) ([3]; 500 g ai/ha Preemergence) | Kochia plant response rating (0 to 100 scale) ([4]; 500 g ai/ha Preemergence) | Pigweed plant response rating (0 to 100 scale) ([5]; 500 g ai/ha Preemergence) | Ragweed plant response rating (0 to 100 scale) ([6]; 500 g ai/ha Preemergence) | Ryegrass, Italian plant response rating (0 to 100 scale) [7] | Ryegrass, Italian plant response rating [7] | Barnyardgrass plant response rating (0 to 100 scale) [8] | Barnyardgrass plant response rating [8] | Blackgrass plant response rating (0 to 100 scale) [9] | Blackgrass plant response rating [9] | Corn plant response rating (0 to 100 scale) [10] | Corn plant response rating [10] | Foxtail, Giant plant response rating (0 to 100 scale) [11] | Foxtail, Giant plant response rating [11] | Galium plant response rating (0 to 100 scale) [12] | Galium plant response rating [12] | Kochia plant response rating (0 to 100 scale) [13] | Kochia plant response rating [13] | also measured
CO/N=C(\c1c(C)cccc1F)c1c(O)c(C)nn(C)c1=O [Compound 39] | 0 | 0 | 0 | 0 | 0 | 30 | 0 | 0 | 10 | 0 | 0 | 0 | 20 | 0 | 0 | 0 | 70 | 40 | 0 | 0 | Ryegrass, Italian plant response rating [1]: 0; Barnyardgrass plant response rating [2]: 0; Foxtail, Giant plant response rating [3]: 0; Kochia plant response rating [4]: 0; Pigweed plant response rating [5]: 0; Ragweed plant response rating [6]: 0; Pigweed plant response rating (0 to 100 scale) [14]: 10; Pigweed plant response rating [14]: 0; Ragweed plant response rating (0 to 100 scale) [15]: 60; Ragweed plant response rating [15]: 0; Wheat plant response rating (0 to 100 scale) [16]: 10; Wheat plant response rating [16]: 0; Plant response rating, Barnyardgrass (0 to 100 scale, 0 is no effect, 100 is complete control) [17]: 0; Plant response rating, Ducksalad (0 to 100 scale, 0 is no effect, 100 is complete control) [18]: 0; Plant response rating, Rice (0 to 100 scale, 0 is no effect, 100 is complete control) [19]: 0; Plant response rating, Sedge, Umbrella (0 to 100 scale, 0 is no effect, 100 is complete control) [20]: 0
C=CCc1ccccc1C(=NOC)c1c(O)c(C)nn(C)c1=O [Compound 122] | 60 | 30 | 80 | 10 | 90 | 50 | 90 | 70 | 60 | 20 | 40 | 20 | 10 | 0 | 70 | 50 | 80 | 60 | 50 | 40 | Ryegrass, Italian plant response rating [1]: 50; Barnyardgrass plant response rating [2]: 0; Foxtail, Giant plant response rating [3]: 10; Kochia plant response rating [4]: 0; Pigweed plant response rating [5]: 20; Ragweed plant response rating [6]: 10; Pigweed plant response rating (0 to 100 scale) [14]: 70; Pigweed plant response rating [14]: 60; Ragweed plant response rating (0 to 100 scale) [15]: 60; Ragweed plant response rating [15]: 50; Wheat plant response rating (0 to 100 scale) [16]: 30; Wheat plant response rating [16]: 0; Plant response rating, Barnyardgrass (0 to 100 scale, 0 is no effect, 100 is complete control) [17]: 0; Plant response rating, Ducksalad (0 to 100 scale, 0 is no effect, 100 is complete control) [18]: 0; Plant response rating, Rice (0 to 100 scale, 0 is no effect, 100 is complete control) [19]: 0; Plant response rating, Sedge, Umbrella (0 to 100 scale, 0 is no effect, 100 is complete control) [20]: 0
CON=C(c1cccc(Cl)c1)c1c(O)c(C)nn(C2CC2)c1=O (mixture of isomers) [Compound 33] | 60 | 0 | 0 | 10 | 70 | 20 | 60 | 10 | 0 | 0 | 0 | 0 | 0 | 0 | 10 | 0 | 70 | 40 | 40 | 20 | Ryegrass, Italian plant response rating (0 to 100 scale) ([1]; 125 g ai/ha Preemergence): 20; Barnyardgrass plant response rating (0 to 100 scale) ([2]; 125 g ai/ha Preemergence): 0; Foxtail, Giant plant response rating (0 to 100 scale) ([3]; 125 g ai/ha Preemergence): 0; Kochia plant response rating (0 to 100 scale) ([4]; 125 g ai/ha Preemergence): 0; Pigweed plant response rating (0 to 100 scale) ([5]; 125 g ai/ha Preemergence): 0; Ragweed plant response rating (0 to 100 scale) ([6]; 125 g ai/ha Preemergence): 0; Pigweed plant response rating (0 to 100 scale) [14]: 30; Pigweed plant response rating [14]: 10; Ragweed plant response rating (0 to 100 scale) [15]: 60; Ragweed plant response rating [15]: 10; Wheat plant response rating (0 to 100 scale) [16]: 20; Wheat plant response rating [16]: 0; Plant response rating, Barnyardgrass (0 to 100 scale, 0 is no effect, 100 is complete control) [17]: 0; Plant response rating, Ducksalad (0 to 100 scale, 0 is no effect, 100 is complete control) [18]: 0; Plant response rating, Rice (0 to 100 scale, 0 is no effect, 100 is complete control) [19]: 0; Plant response rating, Sedge, Umbrella (0 to 100 scale, 0 is no effect, 100 is complete control) [20]: 0

— US20210045385A1, “PYRIDAZINONE-SUBSTITUTED KETOXIMES AS HERBICIDES” (FMC Corporation, priority 2018, published 2021)
